Source: US20240210394A1, “MICROORGANISM CAPTURE FROM ANTIMICROBIAL-CONTAINING SOLUTION” (MOMENTUM BIOSCIENCE LIMITED, priority 2019, published 2024)
“And” between values parts separate entries of the source, which are not always exact repeats. Identical values can stand only once.

Key:
S. aureus = assay: Blood culture time to positivity (flip time), bead rescue vs no-rescue control; format: cell-based; details: for Flip time: Bead rescue; for Flip time in hours/mins: 2 h at 37° C.; for Time to positivity in days: 900 cfu/5 ml
Experimental: An overnight culture of test organism was prepared in blood/broth medium (50:50 blood:broth medium from a BioMerieux SA culture bottle).
Ten-fold serial dilutions of overnight culture was prepared in blood/broth as required.
Antibiotic (abx) was added to whole human blood (in citrate-phosphate-dextrose, CPD, an anticoagulant) at required level.
Whole blood was used as the no-antibiotic control.
Test dilution(s) of organism was added to blood+antibiotic or blood only at 10 μL per mL of blood (sufficient prepared for experiment requirements). 100 μL plate count sample was taken (TO sample).
The inoculated samples were incubated at 37° C. (static) for 2-hour. 100 μL plate count sample was taken (T2 sample).
For the control, 5 mL of spiked blood+abx or blood only was added to blood culture bottles (BioMerieux SA culture bottle) using a vial adapter (West Pharmaceutical Services, Inc. PA, US) and incubated in the automated blood culture cabinet (adapter removed).
For the ‘rescue’ test, 5 mL of spiked blood+abx or blood only was treated with Momentum Capture Beads (Streptavidin-coated, −300 nm beads, Bio estapor, Merk Cat #BE-M 08/0.3) as below: • Momentum Capture Beads diluted in Detergent-free Microbial Binding Buffer (DMBB—Tris+NaCl)—50 μL beads:700 μL DMBB per clean-up • 750 μL of diluted beads added to 50 mL conical centrifuge tube • 5 mL of broth medium added to tube • 5 mL of spiked blood+abx or blood only added to tube • Incubate on ITL TherMix (Integrated Technologies Ltd. Kent, UK), 32.5° C./30 min/1000 rpm—ramped speed protocol • Magnetise on V&P magnet (V&P scientific Inc, CA, US) for 5 min then remove supernatant • Resuspend beads in 1 mL Detergent-free Wash Buffer (DWB—Tris+NaCl) off magnet and transfer to 2 mL Eppendorf flip-top tube on DynaMag-2 magnet (Thermo Fisher Scientific, Life Technologies Ltd. Paisley, UK) • Magnetise for 5 min then remove supernatant • Resuspend beads in 1 mL DWB off magnet then replace on DynaMag-2 magnet • Magnetise for 5 min then remove supernatant • Resuspend beads in 1 mL DWB, add to a fresh, unused blood culture bottle (BioMerieux SA culture bottle) containing standard blood culture growth medium using a vial adapter, and start incubation (adapter removed). • Blood culture bottles are incubated in the automated blood culture cabinet (BacT/ALERT BioMerieux) which records time to positivity. The “Flip” time is when a bottle turns positive as determined by the automated blood culture cabinet. • “Flip” time of each bottle is recorded. • Plate counts (Total Viable Count TVC) are recorded.
Day 1: Prepare overnight culture of test organism in blood/broth medium (50:50 blood:broth) and incubate at 37° C. in a shaking incubator.
Day 2: Prepare ten-fold serial dilution of overnight culture in blood/broth as required • Antibiotic added to whole blood (defibrinated horse blood) at required level • Whole blood as no-antibiotic control • Test dilution(s) of organism added to blood+antibiotic or blood only at 10 μL per mL of blood (sufficient prepared for experiment requirements) • 100 μL plate count sample taken (TO sample) • 2-hour incubation at 37° C. (static), to mimic organism exposure to antimicrobials in the patient • 100 μL plate count sample taken (T2 sample) • 5 mL of spiked blood+abx or blood only added to blood culture bottle (using vial adapter) and incubation started (adapter removed) • 5 mL of spiked blood+abx or blood only (from same source) treated with Momentum Capture Beads as below: • 1. Momentum Capture Beads diluted in Detergent-free Microbial Binding Buffer (DMBB)—50 μL beads:700 μL DMBB per clean-up • 2. 750 μL of diluted beads added to 50 mL conical centrifuge tube • 3. 5 mL of transfer medium added to tube • 4. 5 mL of spiked blood+abx or blood only added to tube • 5.

E. coli = assay: Confirm PCR multiplex (microbial DNA, GrNeg channel) after microbial capture; format: cell-based; design: key: Ct values (qPCR cycle threshold)

With CCN1CCN(C(=O)N[C@@H](C(=O)N[C@@H]2C(=O)N3[C@@H]2SC(C)(C)[C@@H]3C(=O)O)c2ccccc2)C(=O)C1=O [Piperacillin] the “Flip time” value (S. aureus; Piperacillin 96 ug/mL blood, CPD human blood, 750 cfu/5 mL) was 0.62 days, the “Flip time” value (S. aureus; Piperacillin 96 ug/mL blood, CPD human blood, 5000 cfu/5 mL) was 0.57 days and the “Flip time” value (S. aureus; Piperacillin 96 ug/mL blood, defibrinated horse blood, 5000 cfu/5 ml) was 0.78 days. The “Flip time” value (S. aureus; Piperacillin 96 ug/mL blood, defibrinated horse blood, 50000 cfu/5 ml) was 0.65 days, the “Flip time” value (S. aureus; S. aureus spike dil 10-3, Piperacillin 96 ug/ml human blood, SA bottle) was 0.57 days and the “Flip time” value (S. aureus; S. aureus spike dil 10-4, Piperacillin 96 ug/ml human blood, SA bottle) was 0.62 days. For the same compound, the “Flip time in Days” value (S. aureus; Control (no bead rescue), Piperacillin 96 ug/mL blood, CPD human blood, 750 cfu/5 mL) was “Neg”, the “Flip time in Days” value (S. aureus; Control (no bead rescue), Piperacillin 96 ug/mL blood, CPD human blood, 5000 cfu/5 mL) was “Neg” and the “Flip time in Days” value (S. aureus; Control (no bead rescue), Piperacillin 96 ug/mL blood, defibrinated horse blood, 5000 cfu/5 ml) was “Neg”. The “Flip time in Days” value (S. aureus; Control (no bead rescue), Piperacillin 96 ug/mL blood, defibrinated horse blood, 50000 cfu/5 ml) was “Neg”, the “Flip time in hours/mins” value (S. aureus; Control (no bead rescue), S. aureus spike dil 10-3, Piperacillin 96 ug/ml human blood, SA bottle) was “Negative at 120 h” and the “Flip time in hours/mins” value (S. aureus; Control (no bead rescue), S. aureus spike dil 10-4, Piperacillin 96 ug/ml human blood, SA bottle) was “Negative at 120 h”. For the same compound, the “Flip time in Days” value (S. aureus; No bead rescue Control BC, Piperacillin 96 ug/mL blood, 10000 cfu/5 mL) was “Neg”, the “Flip time in Days” value (S. aureus; No bead rescue Control BC, Piperacillin 96 ug/mL blood, 50000 cfu/5 mL) was “Neg” and the “Time to positivity in days” value (S. aureus; Piperacillin 96 ug/mL blood, Control (no beads)) was “Neg”. For the same compound, the “Time to positivity in days” value (S. aureus; Piperacillin 96 ug/mL blood, with magnetic beads in the bottle) was “Neg”.
For Sodium polyanethol sulfonate [SPS], the “Confirm GrNeg results” value (E. coli; WB SPS 0.01 %, EC 1-3 replicates) was 27.94 and 29.18 and 28.32, the “Confirm GrNeg results” value (E. coli; WB SPS 0.01 %, NSC 1-3 replicates) was “NoCt” and the “Confirm GrNeg results” value (E. coli; WB SPS 0.02 %, EC 1-3 replicates) was 29.15 and 28.16 and 29.75. The “Confirm GrNeg results” value (E. coli; WB SPS 0.02 %, NSC 1-3 replicates) was “NoCt”, the “Confirm GrNeg results” value (E. coli; WB SPS 0.04 %, EC 1-3 replicates) was 28.71 and 28.75 and 29.82 and the “Confirm GrNeg results” value (E. coli; WB SPS 0.04 %, NSC 1-3 replicates) was “NoCt”. For the same compound, the “Confirm GrNeg results” value (E. coli; WB SPS 0.06 %, EC 1-3 replicates) was 31.58 and 29.77 and 29.26, the “Confirm GrNeg results” value (E. coli; WB SPS 0.06 %, NSC 1-3 replicates) was “NaCt and NoCt (2×)” and the “Confirm GrNeg results” value (E. coli; WB SPS 0.08 %, EC 1-3 replicates) was 29.20 and 29.80 and 28.87. For the same compound, the “Confirm GrNeg results” value (E. coli; WB SPS 0.08 %, NSC 1-3 replicates) was “NoCt”, the “Confirm GrNeg results” value (E. coli; WB SPS 0.1 %, EC 1-3 replicates) was 29.27 and 28.65 and 29.61 and the “Confirm GrNeg results” value (E. coli; WB SPS 0.1 %, NSC 1-3 replicates) was 47.82 and NoCt (2×).
